Patent US11447466B2, “Substituted indole compounds useful as inhibitors of TLR7/8/9” (BRISTOL-MYERS SQUIBB COMPANY, priority 2017, dated 2022)

Key:
Assay type in all cases: cell-based
human TLR7 = biological target: T1, human TLR7 (Homo sapiens, UniProt Q9NYK1); assay: TLR7 inhibition reporter assay (HEK-Blue SEAP reporter, gardiquimod stimulation); conditions: HEK-Blue cells overexpressing human TLR7, SEAP reporter, gardiquimod 7.5 μM, 22 hour incubation
T1 construct: host or cells: HEK-Blue cells
T1 sequence (Q9NYK1 27-1049): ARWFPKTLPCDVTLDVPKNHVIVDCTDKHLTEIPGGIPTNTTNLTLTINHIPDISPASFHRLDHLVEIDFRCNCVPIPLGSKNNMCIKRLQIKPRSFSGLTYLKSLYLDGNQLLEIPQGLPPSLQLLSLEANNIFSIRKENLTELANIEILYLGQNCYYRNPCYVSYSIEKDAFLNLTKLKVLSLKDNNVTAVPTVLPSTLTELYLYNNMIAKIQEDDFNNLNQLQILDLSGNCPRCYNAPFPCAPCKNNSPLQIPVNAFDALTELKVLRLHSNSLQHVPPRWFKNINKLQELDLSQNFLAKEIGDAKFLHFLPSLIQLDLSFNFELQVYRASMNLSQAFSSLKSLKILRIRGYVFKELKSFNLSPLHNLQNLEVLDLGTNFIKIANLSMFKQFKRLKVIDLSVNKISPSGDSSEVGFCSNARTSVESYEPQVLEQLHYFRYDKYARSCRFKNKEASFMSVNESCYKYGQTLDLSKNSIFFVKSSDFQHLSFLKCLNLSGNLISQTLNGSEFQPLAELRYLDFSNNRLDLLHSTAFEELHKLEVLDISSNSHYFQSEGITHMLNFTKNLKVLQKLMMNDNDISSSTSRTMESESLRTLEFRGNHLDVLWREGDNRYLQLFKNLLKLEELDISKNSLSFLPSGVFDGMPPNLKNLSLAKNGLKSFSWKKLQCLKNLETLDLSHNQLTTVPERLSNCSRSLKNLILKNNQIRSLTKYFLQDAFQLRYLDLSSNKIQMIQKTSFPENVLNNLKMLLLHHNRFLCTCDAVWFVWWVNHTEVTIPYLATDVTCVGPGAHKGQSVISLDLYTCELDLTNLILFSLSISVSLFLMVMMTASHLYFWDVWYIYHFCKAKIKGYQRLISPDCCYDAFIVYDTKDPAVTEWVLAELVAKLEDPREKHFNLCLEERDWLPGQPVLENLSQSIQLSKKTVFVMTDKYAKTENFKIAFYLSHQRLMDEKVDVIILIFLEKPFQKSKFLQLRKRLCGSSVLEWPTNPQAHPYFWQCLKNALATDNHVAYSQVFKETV
Procedure, shortened: (§1)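 Agonists used: gardiquimod 7.5 μM (TLR7), R848 15.9 μM (TLR8), ODN2006 5 nM (TLR9), added after 30 min room-temperature compound pre-treatment (0.05 nM–50 μM) of receptor-overexpressing HEK-Blue cells. SEAP reporter (NF-κB/AP-1 driven) read after 22 h at 37 °C; inhibition scaled between agonist+DMSO and reference-inhibitor wells.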

human TLR8 = biological target: T2, human TLR8 (Homo sapiens, UniProt Q9NR97); assay: TLR8 inhibition reporter assay (HEK-Blue SEAP reporter, R848 stimulation); conditions: HEK-Blue cells overexpressing human TLR8, SEAP reporter, R848 15.9 μM, 22 hour incubation
T2 construct: host or cells: HEK-Blue cells
T2 sequence (Q9NR97 27-1041): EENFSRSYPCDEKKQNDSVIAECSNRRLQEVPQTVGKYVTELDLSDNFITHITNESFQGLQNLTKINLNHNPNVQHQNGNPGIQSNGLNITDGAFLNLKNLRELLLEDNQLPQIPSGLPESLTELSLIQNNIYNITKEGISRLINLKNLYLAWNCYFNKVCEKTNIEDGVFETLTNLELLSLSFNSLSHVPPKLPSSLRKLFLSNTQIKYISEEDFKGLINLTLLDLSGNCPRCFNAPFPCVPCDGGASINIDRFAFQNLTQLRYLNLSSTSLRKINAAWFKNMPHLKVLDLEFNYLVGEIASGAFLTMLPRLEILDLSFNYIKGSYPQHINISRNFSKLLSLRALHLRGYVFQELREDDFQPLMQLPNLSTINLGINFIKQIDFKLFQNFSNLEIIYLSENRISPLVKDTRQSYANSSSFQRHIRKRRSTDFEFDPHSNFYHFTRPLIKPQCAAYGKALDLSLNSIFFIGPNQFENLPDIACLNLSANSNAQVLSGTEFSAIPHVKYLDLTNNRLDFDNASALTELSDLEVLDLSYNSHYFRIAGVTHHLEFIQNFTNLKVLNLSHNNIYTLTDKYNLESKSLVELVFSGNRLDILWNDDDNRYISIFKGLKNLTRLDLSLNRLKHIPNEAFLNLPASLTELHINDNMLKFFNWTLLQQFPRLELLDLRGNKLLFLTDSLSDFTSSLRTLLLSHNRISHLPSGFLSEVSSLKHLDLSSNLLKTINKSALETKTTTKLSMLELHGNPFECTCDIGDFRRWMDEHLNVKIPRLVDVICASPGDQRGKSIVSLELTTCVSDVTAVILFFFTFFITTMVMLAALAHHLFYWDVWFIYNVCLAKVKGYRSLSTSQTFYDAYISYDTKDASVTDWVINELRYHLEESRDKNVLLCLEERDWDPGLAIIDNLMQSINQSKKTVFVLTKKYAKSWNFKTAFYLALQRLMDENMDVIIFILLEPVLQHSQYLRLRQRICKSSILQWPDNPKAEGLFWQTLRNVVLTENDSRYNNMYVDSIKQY
Procedure, shortened: as §1

human TLR9 = biological target: T3, human TLR9 (Homo sapiens, UniProt Q9NR96); assay: TLR9 inhibition reporter assay (HEK-Blue SEAP reporter, ODN2006 stimulation); conditions: HEK-Blue cells overexpressing human TLR9, SEAP reporter, ODN2006 5 nM, 22 hour incubation
T3 construct: host or cells: HEK-Blue cells
T3 sequence (Q9NR96 26-1032): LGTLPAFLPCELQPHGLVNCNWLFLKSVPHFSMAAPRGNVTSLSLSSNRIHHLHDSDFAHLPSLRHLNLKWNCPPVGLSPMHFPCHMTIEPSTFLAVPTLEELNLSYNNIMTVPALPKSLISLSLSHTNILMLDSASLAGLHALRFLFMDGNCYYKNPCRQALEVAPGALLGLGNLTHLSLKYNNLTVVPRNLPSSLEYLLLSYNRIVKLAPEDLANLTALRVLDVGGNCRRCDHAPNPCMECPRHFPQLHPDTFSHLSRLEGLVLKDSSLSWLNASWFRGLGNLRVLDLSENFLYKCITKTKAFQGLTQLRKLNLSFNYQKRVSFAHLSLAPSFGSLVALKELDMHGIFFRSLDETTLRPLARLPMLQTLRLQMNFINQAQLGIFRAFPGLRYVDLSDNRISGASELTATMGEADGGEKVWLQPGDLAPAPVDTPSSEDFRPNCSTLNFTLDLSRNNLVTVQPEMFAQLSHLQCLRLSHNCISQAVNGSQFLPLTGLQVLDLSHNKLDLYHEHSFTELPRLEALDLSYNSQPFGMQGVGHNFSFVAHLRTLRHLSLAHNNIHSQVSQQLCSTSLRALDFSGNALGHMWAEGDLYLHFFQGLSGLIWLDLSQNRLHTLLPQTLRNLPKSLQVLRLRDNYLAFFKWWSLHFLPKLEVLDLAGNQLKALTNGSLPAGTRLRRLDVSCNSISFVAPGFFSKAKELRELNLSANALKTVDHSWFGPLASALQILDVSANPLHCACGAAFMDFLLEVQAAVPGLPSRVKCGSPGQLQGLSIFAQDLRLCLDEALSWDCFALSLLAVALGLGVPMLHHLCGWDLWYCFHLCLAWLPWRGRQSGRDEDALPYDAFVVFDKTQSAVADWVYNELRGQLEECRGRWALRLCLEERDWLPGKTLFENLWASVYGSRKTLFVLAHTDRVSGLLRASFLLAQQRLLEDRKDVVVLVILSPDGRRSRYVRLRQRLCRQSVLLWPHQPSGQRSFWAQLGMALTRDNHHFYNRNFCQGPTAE
Procedure, shortened: as §1

Structure (SMILES)	IC50 (human TLR7) [nM]	IC50 (human TLR8) [nM]	IC50 (human TLR9) [nM]
Cc1c(-c2[nH]c3ccc(C4CCN(CCC(F)(F)F)CC4)cc3c2C(C)C)cn(C)c(=O)c1Cl [Example 102, 3-chloro-5-(3-isopropyl-5-(1-(3,3,3-trifluoropropyl)piperidin-4-yl)-1H-indol-2-yl)-1,4-dimethylpyridin-2(1H)-one]	33.2	32.4	≥ 50000
Cc1c(-c2[nH]c3ccc(C4CCN(C(C)C)CC4)cc3c2C(C)C)cn(C)c(=O)c1-c1cccnc1 [Example 237, 5-(3-isopropyl-5-(1-isopropylpiperidin-4-yl)-1H-indol-2-yl)-1,4-dimethyl-[3,3′-bipyridin]-2(1H)-one]	181	19.8	2100
COCCCN1CCC(c2ccc3[nH]c(-c4cn(C)c(=O)c(Cl)c4C)c(C(C)C)c3c2)CC1 [Example 99, 3-chloro-5-(3-isopropyl-5-(1-(3-methoxypropyl)piperidin-4-yl)-1H-indol-2-yl)-1,4-dimethylpyridin-2(1H)-one]	7.1	10.3	4980
Cc1cc(-c2[nH]c3ccc(C4CCN(CCN5C(=O)CCC5=O)CC4)cc3c2C(C)C)cn(C)c1=O [Example 84, 1-(2-(4-(2-(1,5-dimethyl-6-oxo-1,6-dihydropyridin-3-yl)-3-isopropyl-1H-indol-5-yl)piperidin-1-yl)ethyl)pyrrolidine-2,5-dione]	44.3	73.6	≥ 50000
Cc1c(-c2[nH]c3ccc(C4CCN(CC5COC5)CC4)cc3c2C(C)C)cn(C)c(=O)c1Cl [Example 92, 3-chloro-5-(3-isopropyl-5-(1-(oxetan-3-ylmethyl)piperidin-4-yl)-1H-indol-2-yl)-1,4-dimethylpyridin-2(1H)-one]	3.2	2.8	8510
Cc1c(-c2[nH]c3ccc(C4CCN(CC(C)(C)O)CC4)cc3c2C(C)C)cc(C#N)c(=O)n1C [Example 321, 5-(5-(1-(2-hydroxy-2-methylpropyl)piperidin-4-yl)-3-isopropyl-1H-indol-2-yl)-1,6-dimethyl-2-oxo-1,2-dihydropyridine-3-carbonitrile]	36.7	1.6	4370
CCc1cc(-c2[nH]c3ccc(C4CCNCC4)cc3c2C(C)C)cn(C)c1=O [Example 67, 3-ethyl-5-(3-isopropyl-5-(piperidin-4-yl)-1H-indol-2-yl)-1-methylpyridin-2(1H)-one]	4.3	5.9	919
Cc1cc(-c2[nH]c3ccc(C4CCN(C(=O)C[C@H]5CCCN5)CC4)cc3c2C(C)C)cn(C)c1=O [Example 306, (R)-5-(3-isopropyl-5-(1-(2-(pyrrolidin-2-yl)acetyl)piperidin-4-yl)-1H-indol-2-yl)-1,3-dimethylpyridin-2(1H)-one]	16.5	26.9	547
COCc1cc(-c2[nH]c3ccc(C4CCN(C(C)C)CC4)cc3c2C(C)C)cn(C)c1=O [Example 347, 5-(3-isopropyl-5-(1-isopropylpiperidin-4-yl)-1H-indol-2-yl)-3-(methoxymethyl)-1-methylpyridin-2(1H)-one]	7.2	28.6	13600
Cc1nc(-c2[nH]c3ccc(C4CCN(CC(C)(C)O)CC4)cc3c2C(C)C)cn(C)c1=O [Example 312, 5-(5-(1-(2-hydroxy-2-methylpropyl)piperidin-4-yl)-3-isopropyl-1H-indol-2-yl)-1,3-dimethylpyrazin-2(1H)-one]	35.1	22.2	3170
CCc1c(-c2cn(C)c(=O)c(Cl)c2C)[nH]c2ccc(C3CCN(CC(=O)N(C)C)CC3)cc12 [Example 157, 2-(4-(2-(5-chloro-1,4-dimethyl-6-oxo-1,6-dihydropyridin-3-yl)-3-ethyl-1H-indol-5-yl)piperidin-1-yl)-N,N-dimethylacetamide]	12.8	12.2	6390
CC(C)CN1CCC(c2ccc3[nH]c(-c4cc(-c5cncnc5)c(=O)n(C)c4)c(C(C)C)c3c2)CC1 [Example 256, 5-(5-(1-isobutylpiperidin-4-yl)-3-isopropyl-1H-indol-2-yl)-1-methyl-3-(pyrimidin-5-yl)pyridin-2(1H)-one]	12.4	1.7	1470
Cc1cc(-c2[nH]c3ccc(C4CCN(Cc5cnn(C)c5)CC4)cc3c2C(C)C)cn(C)c1=O [Example 196, 5-(3-isopropyl-5-(1-((1-methyl-1H-pyrazol-4-yl)methyl)piperidin-4-yl)-1H-indol-2-yl)-1,3-dimethylpyridin-2(1H)-one]	3	2.4	4980
Cc1c(-c2[nH]c3ccc(C4CCN(C(=O)CN(C)C)CC4)cc3c2C(C)C)nn(C)c(=O)c1C [Example 283, 6-(5-(1-(dimethylglycyl)piperidin-4-yl)-3-isopropyl-1H-indol-2-yl)-2,4,5-trimethylpyridazin-3(2H)-one]	512	46.8	6250
